A short description of data set [1]: pilot Target Animal Safety (margin of safety) study, oral, 4 months. Type of data set: in vivo, Beagle dog. On the procedure:
A pilot Target Animal Safety study has been performed.
The objective of this study was to provide margin of safety information on Compound 1 at 1, 3 and 5 times the maximum recommended commercial dose (0.6 mg/kg body weight twice daily for two weeks and once daily thereafter (BID), or 1.2 mg/kg body weight daily (SID)) in 8-month-old Beagle dogs (at initiation of dosing), when given orally for 4 months (112 consecutive days). The clinical loading phase of 2 weeks for the BID treatment schedule was prolonged to 6 weeks in this study in accordance with VICH GL43 (3 times the proposed duration).
The test item was the final formulation blend of the investigational veterinary product, filled into gelatine capsules for dose administration. The control article was blank (empty) gelatine capsules.
In addition to that, a 4-month pilot target animal safety study has been conducted in 6-months old dogs utilizing either doses of 0.6, 1.8 or 3.0 mg/kg twice daily over the first 6 weeks (loading phase) and reducing to once daily thereafter (BID), or a dose of 6.0 mg/kg administered once daily over the whole study period (SID) compared to a control group, using 3 males and 3 females per group (Robertson, 2021).

The nature of another data set: Tmax after oral dosing. It is filed as in vivo, Beagle dog. As to conditions: laboratory Beagle dogs. On the procedure:
(§1) Using a randomized, non-blinded, cross-over study design, Compound 1 (1 mg/kg body weight), Apoquel®, or placebo was dosed orally to laboratory Beagle dogs 2 h prior to a cIL-31 challenge (approximate Tmax of Compound 1 and Apoquel®).

Data set [2] relates to cIL-31 induced pruritus. The data set can be described thus: canine interleukin-31 (cIL-31) induced pruritus model. Type of data set: in vivo, Beagle dog.
Excerpt: A canine interleukin-31 (cIL-31) induced pruritus model in the Beagle dog was used to inform on the dose of Compound 1 required to inhibit JAK1 signaling in vivo. The cIL-31 induced pruritus model is a relevant model of acute pruritus associated with atopic and allergic dermatitis in dogs. The magnitude of the suppression of cIL-31 induced pruritus by JAK inhibitors is predictive of their pruritus suppression in patients with allergic or atopic dermatitis As a measure of JAK-1 inhibition in vivo, and by extension the anticipated clinical efficacy of Compound 1, we evaluated Compound 1 in a relevant pharmacodynamic model and included a clinical reference.
as §1
In a second study using a randomized, non-blinded crossover design, several doses of Compound 1 were evaluated (0.5, 0.1 and 0.05 mg/kg body weight); Apoquel® and placebo treatments were also included.

Data set [3] deals with pruritus and lesions of allergic or atopic dermatitis. Conditions: cited from earlier work.
Data set [4] deals with cIL-31 induced pruritus. As to conditions: prior treatment, Beagle dogs, Gonzales et al. 2016; cited from earlier work.
The conditions of data set [5]: cited from earlier work.
The mark [6] stands for this setting: dogs with allergic or atopic dermatitis, Cosgrove et al. 2013.

In the case of `COc1cc(Nc2nn([C@H]3COCC[C@@H]3C#N)cc2C(N)=O)cc(F)n1` (single isomer, unassigned) [Compound 1, 1-((3R,4S) or (3S,4R)-4-cyanotetrahydro-2H-pyran-3-yl)-3-((2-fluoro-6-methoxypyridin-4-yl)amino)-1H-pyrazole-4-carboxamide)], the “changes in body weight, food consumption, ophthalmic examinations, electrocardiology or blood pressure” value in data set [1] (all doses, male and female dogs, oral, 4 months) is recorded as “no changes”. Besides, the tolerability entry in data set [1] (daily oral, up to 5 times the recommended maximum commercial dose of 1.2 mg/kg body weight (BID or SID), 6-month-old beagle dogs) is listed as “well tolerated”. The clinical findings entry in data set [1] (overdosed animals) is reported as “Minor clinical findings (e.g., interdigital cysts, conjunctivitis, gingivitis, diarrhoea)”. Moreover, the “susceptibility to minor infections” value in data set [1] (recommended maximum commercial dose) is “no increased susceptibility to minor infections”; in data set [1] (repeated overdoses) it was “increased susceptibility to minor infections”. Also, in data set [1] (young dogs), the overall safety conclusion entry is “safe for use in young dogs”. In “Tmax after oral dosing” (dog, in vivo, 1 mg/kg body weight, read-out: approximate Tmax), the Tmax is about 2 h. The “suppression of cIL-31 induced pruritus” value with cIL-31 induced pruritus [2] (0.05 mg/kg body weight, second study) was “not”; in the data set with cIL-31 induced pruritus [2] (0.1 mg/kg body weight, second study) it was “not”; in the data set on cIL-31 induced pruritus [2] (0.5 mg/kg body weight, second study) it was “significantly suppressed”; with cIL-31 induced pruritus [2] (1 mg/kg body weight oral, 2 h prior to cIL-31 challenge, observed 2 h), “significantly suppressed”. The “magnitude of effect compared with Apoquel” value in the data set with cIL-31 induced pruritus [2] (0.5 mg/kg, second study) was “similar”.

As for oclacitinib maleate [Apoquel], in data set [3] (setting [6]), the effect on lesions entry is “reduces lesions” and the effect on pruritus entry is given as “rapid amelioration of pruritus”. Also, the haematology effect entry in data set [3] (higher doses, FOI Summary NADA 141-345, Gonzales et al. 2014) is “reduction in hematocrit, hemoglobin, and reticulocyte counts”. Also, the “inhibition of cIL-31 induced pruritic response” value in the data set on cIL-31 induced pruritus [4] is listed as “can be inhibited”. Also, the dogs requiring euthanasia entry in data set [5] (after 4 months, 0, 1, 3, 5 times 0.6 mg/kg twice per day, dogs about 6 months old) was “two dogs required euthanasia”. The “age dependence of adverse clinical effects” value in data set [5] (dog, in vivo) was “most severe adverse clinical effects were observed in dogs aged less than one year”. Also, the “deaths from infection secondary to immunosuppression” value in data set [5] (including one death 28 days after discontinuation) is listed as “two deaths”. Besides, the “adverse finding attributed to treatment-related immunosuppression” value in data set [5] (several dogs in the mid and high dose groups) is “clinical demodicosis”. In addition, the “approximate Tmax” value in “Tmax after oral dosing” is given as about 2 h.

The values above are taken from US20250049775A1, “USE OF AMINOPYRAZOLE COMPOUNDS” (Intervet Inc., priority 2021, published 2025).
